# In US5466688A, “Pyrido[3,4-B]indole derivatives as serotonergic agents” (American Home Products Corporation, priority 1994, dated 1995):
# Key:
# [1] = molecular target: T1, 5-HT1A serotonin receptor (Rattus norvegicus, UniProt P19327); assay: 5-HT1A receptor binding: displacement of [3H] 8-OHDPAT; settings: procedure of Hall et al.
# T1 construct: following the procedure of Hall et al., J. Neurochem; 44 1685 (1985); from tissue
# T1 sequence (P19327 1-422): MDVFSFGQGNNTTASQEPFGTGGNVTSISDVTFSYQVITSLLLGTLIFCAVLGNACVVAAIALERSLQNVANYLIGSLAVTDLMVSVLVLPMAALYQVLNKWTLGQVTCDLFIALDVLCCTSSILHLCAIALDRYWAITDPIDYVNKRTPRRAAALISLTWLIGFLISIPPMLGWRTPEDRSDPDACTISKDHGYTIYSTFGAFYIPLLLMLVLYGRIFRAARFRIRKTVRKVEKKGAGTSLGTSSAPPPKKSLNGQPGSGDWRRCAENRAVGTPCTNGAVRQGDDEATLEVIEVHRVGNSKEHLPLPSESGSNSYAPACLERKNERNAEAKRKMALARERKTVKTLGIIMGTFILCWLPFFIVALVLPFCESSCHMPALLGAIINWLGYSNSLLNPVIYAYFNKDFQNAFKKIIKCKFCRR
# Procedure: High affinity for the serotonin 5-HT1A receptor for the compounds of this invention was established by testing them in accordance with the standard pharmacological test procedure in which the compound's ability to displace [^3 H] 8-OHDPAT (dipropylaminotetralin) from the 5-HT1A serotonin receptor was determined following the procedure of Hall et al., J. Neurochem. 44 1685 (1985). […] The anxiolytic activity of buspirone is believed to be, at least partially, due to its 5-HT1A receptor affinity [VanderMaelen et al., Eur. J. Pharmacol. 1986, 129 (123-130)].
# [2] = molecular target: T1, 5-HT1A serotonin receptor; settings: buspirone, literature (VanderMaelen et al. 1986); cited from earlier work
Structure (SMILES),IC50 [1] [nM],affinity for the 5-HT1A serotonin receptor (in words) [2]
"CN1c2ccccc2[C@@H]2CCN(CCC(C(=O)N3CCCCCC3)c3ccccc3)C[C@H]21 (relative stereo) [Example 3, 1-Azepan-1-yl-4-((trans)-9-methyl-1,3,4,4a,9,9a-hexahydro-2H-pyrido[3,4-b]indol-2-yl)-2-phenyl-butan-1-one]",37.1,
"O=C(C(CCN1CC[C@H]2c3ccccc3N[C@H]2C1)c1ccccc1)N1CCCCCC1 (relative stereo) [Example 4, 1-Azepan-1-yl-4-((cis)-1,3,4,4a,9,9a-hexahydro-2H-pyrido[3,4-b]indol-2-yl)-2-phenyl-butan-1-one]",67.4,
"O=C(C(CCN1CCc2c([nH]c3ccccc23)C1)c1ccccc1)N1CCCCCC1 (centres unmarked) [Example 1, 1-Azepan-1-yl-2-phenyl-4-(1,3,4,9-tetrahydro-2H-pyrido[3.4-b]indol-2-yl]-butan-1-one]",30.9,
"Cn1c2c(c3ccccc31)CCN(CCC(C(=O)N1CCCCCC1)c1ccccc1)C2 (centres unmarked) [Example 2, 1-Azepan-1-yl-4-(9-methyl-1,3,4,9-tetrahydro-2H-pyrido[3.4-b]-indol-2-yl]-2-phenyl-butan-1-one]",33.3,
O=C1CC2(CCCC2)CC(=O)N1CCCCN1CCN(c2ncccn2)CC1 [buspirone],,potent affinity
